# Measured values published in paper PMC8204385 (Biophysical Journal, 2021).
# Several values for one entry are separate records, joined by “and”; a condition that tells them apart may be missing. Equal entries are not always repeated.
# Target: T1, human SHP-1 (Homo sapiens, UniProt P29350)
# T1 construct: 6xHis (N); made in house; host or cells: Escherichia coli BL21-CodonPlus (DE3)-RIPL
# Test: SPR-based assay for tethered SHP-1 reactions on immobilised phosphopeptides, extended MPDPDE model fit
# Assay type: binding
# [1] = SPR, 37°C, MPDPDE fit, mean ± SE of N experiments
# T1 sequence (P29350 whole entry): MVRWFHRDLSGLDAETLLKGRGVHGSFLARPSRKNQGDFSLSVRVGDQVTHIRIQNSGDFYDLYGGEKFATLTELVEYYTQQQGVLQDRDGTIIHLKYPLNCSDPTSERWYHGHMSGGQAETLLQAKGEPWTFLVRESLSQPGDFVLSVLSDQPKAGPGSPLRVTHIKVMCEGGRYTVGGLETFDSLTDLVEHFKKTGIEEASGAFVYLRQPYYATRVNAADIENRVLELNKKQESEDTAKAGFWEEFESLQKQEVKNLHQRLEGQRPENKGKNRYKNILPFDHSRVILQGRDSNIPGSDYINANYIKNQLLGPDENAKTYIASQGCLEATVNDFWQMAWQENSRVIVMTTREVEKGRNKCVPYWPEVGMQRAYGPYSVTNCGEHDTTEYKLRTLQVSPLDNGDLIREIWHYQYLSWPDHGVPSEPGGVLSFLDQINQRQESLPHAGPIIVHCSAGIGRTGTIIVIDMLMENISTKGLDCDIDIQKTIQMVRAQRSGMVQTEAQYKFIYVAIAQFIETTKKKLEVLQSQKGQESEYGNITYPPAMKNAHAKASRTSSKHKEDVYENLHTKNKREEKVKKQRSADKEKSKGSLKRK
substance,measurement,setting,value
"biotin-QLRRRGKTNHYQTTVEKK SLTIYAQVQKPGPLQKKLD SFPA QDPCTTIYVAATEPVPESVQET NSITVY^∗ASVTLPES [SLAM, N-terminally biotinylated singly phosphorylated peptide of the cytoplasmic tail of SLAM, 77 aa]",molecular reach contributed by the peptide tail (LPD-1 or LSLAM),"37°C, ((L^2 − LSHP-1^2)/2)^1/2 with LSHP-1 = 13.0 nm",20.1 nm and 20 nm
same,kon,"SPR Biacore T200, 37°C, 10 μL/min, SHP-1 injected 45 s over biotinylated phosphopeptide on streptavidin CM5 chip, HEPES pH 7.4, MPDPDE fit, mean ± SE of N experiments",20000 ± 10000 M⁻¹ s⁻¹
same,"allosteric activation of SHP-1, ratio kcat(tethered)/kcat(solution)","SPR, 37°C",6.2 fold
same,Kd,"SPR, 37°C, KD = koff/kon, mean ± SE of N experiments",130 ± 40 µM
same,"L, molecular reach of the reaction","SPR, 37°C, L = (σ*)^−1/3 from averaged σ*, ± SE",31.2 ± 1.2 nm
same,kcat(solution),[1],5800 ± 1000 M⁻¹ s⁻¹
same,kcat(tethered),[1],36000 ± 3000 M⁻¹ s⁻¹
same,koff,[1],1.7 ± 0.2 s⁻¹
same,σ* (local concentration),[1],55 ± 6 µM
